Literature values as cited in patent US20220387443A1, “RESPIRATORY SYNCYTIAL VIRUS FUSION PROTEIN INHIBITOR COMPOSITIONS AND METHODS FOR THE TREATMENT AND PROPHYLAXIS OF RSV DISEASES USING THE SAME” (priority 2019, published 2022).

Tests used:
[1] = test system: RSV; conditions: human RSV viral challenge studies
[2] = test system: RSV infection; conditions: selected infants, intramuscularly 15 mg/kg once a month for the duration of RSV season

In the case of `Cc1cn2nc([C@@H]3CCCCN3C(=O)c3cc(Cl)ccc3NS(C)(=O)=O)cc2nc1N1CC[C@H](N)C1` [GS-5806], the “reduction of viral load” value [1] is given as 4.2 log 10.
For “palivizumab: humanized monoclonal antibody against RSV fusion (F) protein”, the “reduction of hospitalization rate caused by RSV infection” value [2] is listed as 45-55%.
